Measured values as given in ChEMBL document CHEMBL3045426, “Synthesis, Antiviral and Antibacterial Activities of Isatin Mannich Bases” (Med Chem Res, 2005).
In brackets after ≈: the same amount, converted by molar mass.

Tests used:
Vibrio cholerae [1] = assay: Antimicrobial activity against Vibrio cholerae 0139 after 18 to 20 hr by agar dilution method; type: functional; settings: 139
Citrobacter freundii = assay: Antimicrobial activity against Citrobacter freundii after 18 to 20 hr by agar dilution method; type: functional
Vero = assay: Cytotoxicity against Chlorocebus aethiops (African green monkey) Vero cells up to 62.5 ug/ml; type: cell-based; settings: chlorocebus sabaeus
[2] = Cytotoxicity against Homo sapiens (human) MT4 cells after 5 days by MTT assay; type: cell-based
Proteus mirabilis = assay: Antimicrobial activity against Proteus mirabilis after 18 to 20 hr by agar dilution method; type: functional
Escherichia coli [3] = assay: Ratio of ciproflaxacin ED50 to compound ED50 for Escherichia coli NCTC 10418 infected in po dosed CF mouse; type: functional
Plesiomonas = assay: Antimicrobial activity against Plesiomonas after 18 to 20 hr by agar dilution method; type: functional
Shigella boydii = assay: Antimicrobial activity against Shigella boydii after 18 to 20 hr by agar dilution method; type: functional
[4] = tested on: Mycobacterium tuberculosis; assay: Antimycobacterial activity against Mycobacterium tuberculosis H37Rv ATCC 27294; type: functional
Vibrio mimicus = assay: Antimicrobial activity against Vibrio mimicus after 18 to 20 hr by agar dilution method; type: functional
[5] = Cytotoxicity against Homo sapiens (human) CEM cells after 5 days by MTT assay; type: cell-based; settings: CEM cells (CCRF-CEM)
[6] = tested on: Human immunodeficiency virus 1; assay: Antiviral activity against Human immunodeficiency virus 1 IIIB infected MT4 cells assessed as protection against viral infection after 5 days by MTT assay; type: functional; design: concentration or dose not given beside the values
Vibrio cholerae [7] = assay: Antimicrobial activity against Vibrio cholerae 01 after 18 to 20 hr by agar dilution method; type: functional; settings: 1
Enterobacter = assay: Antimicrobial activity against Enterobacter after 18 to 20 hr by agar dilution method; type: functional
Staphylococcus aureus = assay: Antimicrobial activity against Staphylococcus aureus after 18 to 20 hr by agar dilution method; type: functional
Escherichia coli [8] = assay: Antibacterial activity against Escherichia coli NCTC 10418 infected in po dosed CF mouse compound administered 1 hr prior and 4 hr post infection; type: functional; settings: NCTC 10418, po
Salmonella paratyphi = assay: Antimicrobial activity against Salmonella enterica subsp. enterica serovar Paratyphi A after 18 to 20 hr by agar dilution method; type: functional
Proteus vulgaris = assay: Antimicrobial activity against Proteus vulgaris after 18 to 20 hr by agar dilution method; type: functional
Salmonella enteritidis = assay: Antimicrobial activity against Salmonella enterica subsp. enterica serovar Enteritidis after 18 to 20 hr by agar dilution method; type: functional
Vibrio fluvialis = assay: Antimicrobial activity against Vibrio fluvialis after 18 to 20 hr by agar dilution method; type: functional
[9] = Selectivity index, ratio of CC50 for human MT4 cells to EC50 for HIV1 3B infected in MT4 cells; type: toxicity, cell-based; settings: read-out: Ratio CC50/EC50
[10] = target: Human immunodeficiency virus type 1 reverse transcriptase (Human immunodeficiency virus 1, UniProt Q72547); assay: Inhibition of Human immunodeficiency virus 1 RT using Poly(vC)oligo (dG) as template/primer after 30 min
Morganella morganii = assay: Antimicrobial activity against Morganella morganii after 18 to 20 hr by agar dilution method; type: functional
Klebsiella pneumoniae [11] = assay: Antimicrobial activity against Klebsiella pneumoniae after 18 to 20 hr by agar dilution method; type: functional
[12] = tested on: Mycobacterium tuberculosis; assay: Antimycobacterial activity against Mycobacterium tuberculosis H37Rv ATCC 27294 at 6.25 ug/ml by MABA; type: functional
Escherichia coli [13] = assay: Antimicrobial activity against Escherichia coli NCTC 10418 after 18 to 20 hr by agar dilution method; type: functional
Vibrio parahaemolyticus = assay: Antimicrobial activity against Vibrio parahaemolyticus after 18 to 20 hr by agar dilution method; type: functional
Klebsiella pneumoniae [14] = assay: Antimicrobial activity against Klebsiella pneumoniae subsp. ozaenae after 18 to 20 hr by agar dilution method; type: functional
Edwardsiella tarda = assay: Antimicrobial activity against Edwardsiella tarda after 18 to 20 hr by agar dilution method; type: functional
Hepatitis C virus = assay: Antiviral activity against Hepatitis C virus BM4-5 infected in Huh7 cells assessed as inhibition of viral RNA replication by phosphor screening method; type: functional, Hepacivirus hominis, Huh-7
[15] = tested on: Human immunodeficiency virus 1; assay: Antiviral activity against Human immunodeficiency virus 1 IIIB infected CEM cells assessed as inhibition of virus-induced cytopathicity after 6 days by XTT assay; type: functional, organism-based; settings: CCRF-CEM, 144 h
Salmonella typhi = assay: Antimicrobial activity against Salmonella enterica subsp. enterica serovar Typhi after 18 to 20 hr by agar dilution method; type: functional
[16] = tested on: Human immunodeficiency virus 1; assay: Antiviral activity against Human immunodeficiency virus 1 IIIB infected CEM cells assessed as protection against viral infection after 6 days by XTT assay; type: functional, CCRF-CEM; design: concentration or dose not given beside the values
Shigella sonnei = assay: Antimicrobial activity against Shigella sonnei after 18 to 20 hr by agar dilution method; type: functional
Salmonella typhimurium = assay: Antimicrobial activity against Salmonella enterica subsp. enterica serovar Typhimurium after 18 to 20 hr by agar dilution method; type: functional
[17] = tested on: Human immunodeficiency virus 1; assay: Antiviral activity against Human immunodeficiency virus 1 IIIB infected MT4 cells assessed as inhibition of virus-induced cytopathicity after 5 days by MTT assay; type: functional, organism-based; settings: MT4, 120 h
[18] = Cytotoxicity against Homo sapiens (human) HuH7 cells assessed as cell growth at 50 ug/ml after 3 days by Neutral red assay; type: cell-based, Huh-7; settings: read-out: Activity
Priestia megaterium = assay: Antimicrobial activity against Bacillus megaterium after 18 to 20 hr by agar dilution method; type: functional
Pseudomonas aeruginosa = assay: Antimicrobial activity against Pseudomonas aeruginosa after 18 to 20 hr by agar dilution method; type: functional

SMILES: COc1cc(Cc2cnc(/N=C3\C(=O)N(CN4CCN(c5cc6c(cc5F)c(=O)c(C(=O)O)cn6C5CC5)CC4)c4ccc(Cl)cc43)nc2N)cc(OC)c1OC
- MIC (Vibrio cholerae [1]): 0.019 µg/mL (≈ 0.0238 µM)
- MIC (Citrobacter freundii): 1.22 µg/mL (≈ 1.53 µM)
- Activity (Vero): Non-toxic
- CC50 at 120 h [2]: 187 µg/mL (≈ 234 µM)
- MIC (Proteus mirabilis): 0.019 µg/mL (≈ 0.0238 µM)
- Ratio ED50 (Escherichia coli [3]): 2
- MIC (Plesiomonas): 1.22 µg/mL (≈ 1.53 µM)
- MIC (Shigella boydii): 2.44 µg/mL (≈ 3.06 µM)
- MIC [4]: 3.13 µg/mL (≈ 3.93 µM)
- MIC (Vibrio mimicus): 0.0095 µg/mL (≈ 0.0119 µM)
- CC50 at 120 h [5]: > 200 µg/mL
- Activity [6]: 101%
- MIC (Vibrio cholerae [7]): 4.88 µg/mL (≈ 6.12 µM)
- MIC (Enterobacter): 0.0381 µg/mL (≈ 0.0478 µM)
- MIC (Staphylococcus aureus): 4.88 µg/mL (≈ 6.12 µM)
- ED50 (Escherichia coli [8]): 0.62 mg/kg
- MIC (Salmonella paratyphi): 0.153 µg/mL (≈ 0.191 µM)
- MIC (Proteus vulgaris): 0.0095 µg/mL (≈ 0.0119 µM)
- MIC (Salmonella enteritidis): 0.61 µg/mL (≈ 0.766 µM)
- MIC (Vibrio fluvialis): 0.0095 µg/mL (≈ 0.0119 µM)
- selectivity ratio [9]: > 19
- IC50 [10]: 18.4 µM
- MIC (Morganella morganii): 1.22 µg/mL (≈ 1.53 µM)
- MIC (Klebsiella pneumoniae [11]): 0.31 µg/mL (≈ 0.389 µM)
- inhibition at 6.25 µg/mL [12]: 100%
- MIC (Escherichia coli [13]): 0.0381 µg/mL (≈ 0.0478 µM)
- MIC (Vibrio parahaemolyticus): 0.0763 µg/mL (≈ 0.0957 µM)
- MIC (Klebsiella pneumoniae [14]): 4.83 µg/mL (≈ 6.06 µM)
- MIC (Edwardsiella tarda): 0.019 µg/mL (≈ 0.0238 µM)
- inhibition (INH) (Hepatitis C virus): 86%
- EC50 [15]: > 200 µg/mL
- MIC (Salmonella typhi): 0.305 µg/mL (≈ 0.383 µM)
- Activity [16]: 33.3%
- MIC (Shigella sonnei): 0.31 µg/mL (≈ 0.389 µM)
- MIC (Salmonella typhimurium): 0.0047 µg/mL (≈ 0.0059 µM)
- EC50 [17]: 9.4 µg/mL (≈ 11.8 µM)
- viability at 72 h, 50 ug/ml [18]: 109%
- MIC (Priestia megaterium): 0.019 µg/mL (≈ 0.0238 µM)
- MIC (Pseudomonas aeruginosa): 1.22 µg/mL (≈ 1.53 µM)

SMILES: CCn1cc(C(=O)O)c(=O)c2cc(F)c(N3CCN(CN4C(=O)/C(=N\c5ncc(Cc6cc(OC)c(OC)c(OC)c6)c(N)n5)c5cc(Cl)ccc54)C(C)C3)c(F)c21 (stereo unspecified)
- MIC (Vibrio cholerae [1]): 0.0381 µg/mL (≈ 0.0466 µM)
- MIC (Citrobacter freundii): 0.0047 µg/mL (≈ 0.00575 µM)
- Activity (Vero): Non-toxic
- CC50 at 120 h [2]: 36.9 µg/mL (≈ 45.2 µM)
- MIC (Proteus mirabilis): 0.0763 µg/mL (≈ 0.0934 µM)
- MIC (Plesiomonas): 1.22 µg/mL (≈ 1.49 µM)
- MIC (Shigella boydii): 0.305 µg/mL (≈ 0.373 µM)
- MIC [4]: 1.56 µg/mL (≈ 1.91 µM)
- MIC (Vibrio mimicus): 0.0381 µg/mL (≈ 0.0466 µM)
- CC50 at 120 h [5]: 18.7 µg/mL (≈ 22.9 µM)
- Activity [6]: 89%
- MIC (Vibrio cholerae [7]): 0.0095 µg/mL (≈ 0.0116 µM)
- MIC (Enterobacter): 0.0095 µg/mL (≈ 0.0116 µM)
- MIC (Staphylococcus aureus): 0.0763 µg/mL (≈ 0.0934 µM)
- ED50 (Escherichia coli [8]): 1.25 mg/kg
- MIC (Salmonella paratyphi): 0.019 µg/mL (≈ 0.0232 µM)
- MIC (Proteus vulgaris): 0.153 µg/mL (≈ 0.187 µM)
- MIC (Salmonella enteritidis): 0.0095 µg/mL (≈ 0.0116 µM)
- MIC (Vibrio fluvialis): 0.019 µg/mL (≈ 0.0232 µM)
- selectivity ratio [9]: 3
- MIC (Morganella morganii): 0.153 µg/mL (≈ 0.187 µM)
- MIC (Klebsiella pneumoniae [11]): 9.77 µg/mL (≈ 11.9 µM)
- inhibition at 6.25 µg/mL [12]: 100%
- MIC (Escherichia coli [13]): 0.153 µg/mL (≈ 0.187 µM)
- MIC (Vibrio parahaemolyticus): 0.0047 µg/mL (≈ 0.00575 µM)
- MIC (Klebsiella pneumoniae [14]): 19.5 µg/mL (≈ 23.9 µM)
- MIC (Edwardsiella tarda): 0.0763 µg/mL (≈ 0.0934 µM)
- inhibition (INH) (Hepatitis C virus): 60%
- EC50 [15]: > 18.7 µg/mL
- MIC (Salmonella typhi): 0.019 µg/mL (≈ 0.0232 µM)
- Activity [16]: 48.3%
- MIC (Shigella sonnei): 4.88 µg/mL (≈ 5.97 µM)
- MIC (Salmonella typhimurium): 0.0381 µg/mL (≈ 0.0466 µM)
- EC50 [17]: 17.2 µg/mL (≈ 21 µM)
- viability at 72 h, 50 ug/ml [18]: 85%
- MIC (Priestia megaterium): 0.019 µg/mL (≈ 0.0232 µM)
- MIC (Pseudomonas aeruginosa): 0.153 µg/mL (≈ 0.187 µM)
